Measured values taken from patent publication US9210928B2, “Plant development control composition” (Syngenta Crop Protection, LLC, priority 2008, dated 2015).
“Also recorded” adds a separate entry of the source.

Target: T1, MmBCO2 (Mus musculus, UniProt Q99NF1)
T1 construct: All genes were full length except AtCCD7; expressed in transfected cells; host or cells: E. coli BL21(DE3) harbouring pAC-BETA
T1 sequence (Q99NF1 1-532): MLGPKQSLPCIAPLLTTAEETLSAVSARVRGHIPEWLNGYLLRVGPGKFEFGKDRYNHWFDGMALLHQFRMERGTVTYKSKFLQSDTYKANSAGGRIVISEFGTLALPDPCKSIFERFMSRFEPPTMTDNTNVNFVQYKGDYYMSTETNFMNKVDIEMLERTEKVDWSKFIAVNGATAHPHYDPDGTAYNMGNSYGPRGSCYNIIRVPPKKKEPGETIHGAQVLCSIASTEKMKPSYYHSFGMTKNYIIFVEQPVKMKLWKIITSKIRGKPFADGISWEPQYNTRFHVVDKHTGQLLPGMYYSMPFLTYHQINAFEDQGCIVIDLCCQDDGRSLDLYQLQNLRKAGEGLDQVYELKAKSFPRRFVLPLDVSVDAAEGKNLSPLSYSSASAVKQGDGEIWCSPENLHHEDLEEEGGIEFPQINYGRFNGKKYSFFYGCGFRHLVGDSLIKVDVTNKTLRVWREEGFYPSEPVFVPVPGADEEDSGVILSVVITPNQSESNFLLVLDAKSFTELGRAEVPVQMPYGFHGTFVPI
Experiment: In vivo enzyme assay in β-carotene-producing E. coli expressing MmBCO2
Format: cell-based
Conditions: 100 μM inhibitor, 16 hours; FIG. 4
From the text: In vivo enzyme assays in E. coli—The genes of interest (supplemental Table S1) were cloned into the vector pET30c (Novagen) fused directly to the initial ATG codon with no tag, or into pGEX-4T such that the gene was fused to an N-terminal GST tag. All genes were full length except AtCCD7, which had the chloroplast signal sequence removed (supplemental methods). […] Therefore, this construct was used in subsequent assays. The plasmids were transferred to the E. coli expression strain BL21(DE3), harbouring pAC-BETA (38), and therefore producing β-carotene.
For each inhibitor assay, 2.5 ml LB media with the appropriate antibiotics (25 μg ml^−1 chloramphenicol and 50 μg ml^−1 kanamycin or 100 μg ml^−1 ampicillin) and 2.5 μM IPTG, was prepared. […] The supernatant was removed and the O.D.453-O.D.550 was measured. The amount of β-carotene was calculated using a standard curve generated from a dilution series of β-carotene (Sigma) in ethanol with 0.2% Triton X-100; the absolute levels of β-carotene are shown in FIG. 8. The relative inhibition was calculated by the equation: (Ci−Cc)/(C1−Cc)×100, where Ci is the carotenoid level with inhibitor and CCD present, Cc is the level with CCD but without the inhibitor and C1 is the level in a strain where lacZ is expressed instead of the CCD, and no inhibitor is present. […]

## COc1ccc(C(=O)N(O)Cc2ccc(F)cc2)cc1 [Compound F2, N-(4-fluorobenzyl)-4-methoxybenzoyl hydroxamic acid]
  relative inhibition of MmBCO2 in E. coli (in words): most effective compounds at inhibiting MmBCO2; also recorded: high inhibitory activity

## COc1ccc(C(=O)N(O)Cc2ccccc2)cc1 [Compound F1, N-benzyl-4-methoxybenzoyl hydroxamic acid]
  relative inhibition of MmBCO2 in E. coli (in words): most effective compounds at inhibiting MmBCO2; also recorded: high inhibitory activity
